For one molecule, inhibition results are on record in article PMC6934184, “Selective DNA-PKcs inhibition extends the therapeutic index of localized radiotherapy and chemotherapy” (The Journal of Clinical Investigation, 2019).

For this experiment, the target named is T1, YES1 (Homo sapiens, UniProt P07947).
T1 construct: purchased Thermo Fisher Scientific (Life Technologies) SelectScreen
Put plainly: SelectScreen Z'LYTE. It is filed as biochemical. In short, it runs like this: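 SelectScreen broad panel; activity (Z'LYTE, Adapta) plus binding formats. ATP: Km app for CSF1R Z'LYTE; 10 for CAMK1 Adapta. Readout = % per kinase.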

Broadly, the inhibition is how much of the control response was suppressed. Low values mean little suppression, high ones strong suppression.

SMILES strings stand for the structures.

T1 sequence (P07947 whole entry): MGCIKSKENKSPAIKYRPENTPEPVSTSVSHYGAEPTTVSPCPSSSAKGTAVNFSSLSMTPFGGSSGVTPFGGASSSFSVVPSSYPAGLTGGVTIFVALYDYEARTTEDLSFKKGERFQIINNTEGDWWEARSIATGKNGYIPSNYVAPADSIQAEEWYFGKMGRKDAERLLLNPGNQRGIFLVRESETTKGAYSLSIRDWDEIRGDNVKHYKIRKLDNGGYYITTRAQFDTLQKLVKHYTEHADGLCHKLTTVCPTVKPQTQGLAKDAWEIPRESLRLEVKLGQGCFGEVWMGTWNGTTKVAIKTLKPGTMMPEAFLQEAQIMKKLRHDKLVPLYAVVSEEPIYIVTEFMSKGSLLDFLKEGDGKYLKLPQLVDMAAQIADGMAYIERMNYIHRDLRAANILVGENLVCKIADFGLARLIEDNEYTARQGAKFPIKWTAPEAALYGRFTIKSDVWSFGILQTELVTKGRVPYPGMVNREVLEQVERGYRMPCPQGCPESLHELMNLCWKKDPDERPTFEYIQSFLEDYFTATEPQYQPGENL

As for `CN(C(=O)CN1CCOCC1)c1ccc2sc3c(-c4cccc5c(=O)cc(N6CC7CCC(C6)O7)oc45)cccc3c2c1` [NU5455], testing at 1 µM gave an inhibition of 7.4%.
